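Exposure lasted 48 hours, with cells grown in 96-well plates and compounds tested at five concentrations. GI50 is the concentration that inhibits growth by half.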 Activity calls are given as the source filed them. Rule as the data show it: active = GI50 up to about 1.1 µM and inactive = higher.
Experiments:
Assay in all cases: DTP human tumour cell line panel, 48 h
K562 = tested on: K562
OVCAR-4 = tested on: OVCAR-4
Hs-578T = tested on: Hs-578T
KM12 = tested on: KM12
NCI/ADR-RES = tested on: NCI/ADR-RES
ACHN = tested on: ACHN
HOP-92 = tested on: HOP-92
SNB-75 = tested on: SNB-75
DU-145 = tested on: DU-145
RXF 393 = tested on: RXF 393
SNB-19 = tested on: SNB-19
MCF7 = tested on: MCF7
U-251 = tested on: U-251
UO-31 = tested on: UO-31
SR = tested on: SR
MDA-MB-231 = tested on: MDA-MB-231
NCI-H460 = tested on: NCI-H460
RPMI-8226 = tested on: RPMI-8226
UACC-62 = tested on: UACC-62
EKVX = tested on: EKVX
TK-10 = tested on: TK-10
HOP-62 = tested on: HOP-62
OVCAR-3 = tested on: OVCAR-3
MDA-MB-435 = tested on: MDA-MB-435
M14 = tested on: M14
LOX IMVI = tested on: LOX IMVI
A549 = tested on: A549
SF-268 = tested on: SF-268
MDA-N = tested on: MDA-N
PC-3 = tested on: PC-3
HCC 2998 = tested on: HCC 2998
SK-MEL-28 = tested on: SK-MEL-28
HCT-116 = tested on: HCT-116
Malme-3M = tested on: Malme-3M
SK-MEL-5 = tested on: SK-MEL-5
BT-549 = tested on: BT-549
SN12C = tested on: SN12C
OVCAR-5 = tested on: OVCAR-5
SF-295 = tested on: SF-295
CAKI-1 = tested on: CAKI-1
UACC-257 = tested on: UACC-257
SK-OV-3 = tested on: SK-OV-3
NCI-H226 = tested on: NCI-H226
COLO 205 = tested on: COLO 205
OVCAR-8 = tested on: OVCAR-8
NCI-H23 = tested on: NCI-H23
SF-539 = tested on: SF-539
IGROV-1 = tested on: IGROV-1
CCRF-CEM = tested on: CCRF-CEM
MOLT-4 = tested on: MOLT-4
SW-620 = tested on: SW-620
SK-MEL-2 = tested on: SK-MEL-2
T47D = tested on: T47D
HT-29 = tested on: HT-29
NCI-H522 = tested on: NCI-H522
HCT-15 = tested on: HCT-15
HL-60 = tested on: HL-60
A498 = tested on: A498
786-0 = tested on: 786-0

## Brc1ccc2c(c1)[C@H]1CCc3c([nH]c4ccccc34)[C@H]1N2
K562
  GI50: 4.85 µM (inactive)
OVCAR-4
  GI50: 13 µM (inactive)
Hs-578T
  GI50: 25.4 µM (inactive)
KM12
  GI50: 5.31 µM (inactive)
NCI/ADR-RES
  GI50: 14.2 µM (inactive)
ACHN
  GI50: 12.5 µM (inactive)
HOP-92
  GI50: 13.3 µM (inactive)
SNB-75
  GI50: 21.3 µM (inactive)
DU-145
  GI50: 12.9 µM (inactive)
RXF 393
  GI50: 12 µM (inactive)
SNB-19
  GI50: 13.7 µM (inactive)
MCF7
  GI50: 3.42 µM (inactive)
U-251
  GI50: 10.1 µM (inactive)
UO-31
  GI50: 11.4 µM (inactive)
SR
  GI50: 0.889 µM (active)
MDA-MB-231
  GI50: 1.6 µM (inactive)
NCI-H460
  GI50: 12.4 µM (inactive)
RPMI-8226
  GI50: 4.39 µM (inactive)
UACC-62
  GI50: 11.5 µM (inactive)
EKVX
  GI50: 10.8 µM (inactive)
TK-10
  GI50: 11.2 µM (inactive)
HOP-62
  GI50: 10.9 µM (inactive)
OVCAR-3
  GI50: 10.6 µM (inactive)
MDA-MB-435
  GI50: 13.4 µM (inactive)
M14
  GI50: 13.2 µM (inactive)
LOX IMVI
  GI50: 4.38 µM (inactive)
A549
  GI50: 14.8 µM (inactive)
SF-268
  GI50: 15.1 µM (inactive)
MDA-N
  GI50: 14.9 µM (inactive)
PC-3
  GI50: 5.9 µM (inactive)
HCC 2998
  GI50: 12.9 µM (inactive)
SK-MEL-28
  GI50: 14 µM (inactive)
HCT-116
  GI50: 8.49 µM (inactive)
Malme-3M
  GI50: 10.7 µM (inactive)
SK-MEL-5
  GI50: 3.13 µM (inactive)
BT-549
  GI50: 18.4 µM (inactive)
SN12C
  GI50: 13 µM (inactive)
OVCAR-5
  GI50: 11.7 µM (inactive)
SF-295
  GI50: 11.6 µM (inactive)
CAKI-1
  GI50: 10.2 µM (inactive)
UACC-257
  GI50: 12.8 µM (inactive)
SK-OV-3
  GI50: 14.3 µM (inactive)
NCI-H226
  GI50: 12.1 µM (inactive)
COLO 205
  GI50: 11.5 µM (inactive)
OVCAR-8
  GI50: 13.3 µM (inactive)
NCI-H23
  GI50: 12.4 µM (inactive)
SF-539
  GI50: 2.36 µM (inactive)
IGROV-1
  GI50: 0.369 µM (active)
CCRF-CEM
  GI50: 3.91 µM (inactive)
MOLT-4
  GI50: 2.2 µM (inactive)
SW-620
  GI50: 14.4 µM (inactive)
SK-MEL-2
  GI50: 16.6 µM (inactive)
T47D
  GI50: 3.11 µM (inactive)
HT-29
  GI50: 14.1 µM (inactive)

## O=C(O)c1cc(/N=N/c2ccc([As](=O)(O)O)cc2)ccc1O
K562
  GI50: > 100 µM (inactive)
OVCAR-4
  GI50: > 100 µM (inactive)
Hs-578T
  GI50: > 100 µM (inactive)
NCI-H522
  GI50: > 100 µM (inactive)
KM12
  GI50: > 100 µM (inactive)
NCI/ADR-RES
  GI50: > 100 µM (inactive)
ACHN
  GI50: > 100 µM (inactive)
SNB-75
  GI50: > 100 µM (inactive)
DU-145
  GI50: > 100 µM (inactive)
RXF 393
  GI50: > 100 µM (inactive)
SNB-19
  GI50: > 100 µM (inactive)
MCF7
  GI50: > 100 µM (inactive)
U-251
  GI50: > 100 µM (inactive)
UO-31
  GI50: > 100 µM (inactive)
SR
  GI50: > 100 µM (inactive)
MDA-MB-231
  GI50: > 100 µM (inactive)
NCI-H460
  GI50: > 100 µM (inactive)
RPMI-8226
  GI50: > 100 µM (inactive)
UACC-62
  GI50: > 100 µM (inactive)
EKVX
  GI50: > 100 µM (inactive)
TK-10
  GI50: > 100 µM (inactive)
HCT-15
  GI50: > 100 µM
HOP-62
  GI50: > 100 µM (inactive)
HL-60
  GI50: > 100 µM (inactive)
OVCAR-3
  GI50: > 100 µM (inactive)
MDA-MB-435
  GI50: > 100 µM (inactive)
M14
  GI50: > 100 µM (inactive)
LOX IMVI
  GI50: > 100 µM (inactive)
A549
  GI50: > 100 µM (inactive)
SF-268
  GI50: > 100 µM (inactive)
MDA-N
  GI50: > 100 µM (inactive)
PC-3
  GI50: > 100 µM (inactive)
HCC 2998
  GI50: > 100 µM (inactive)
SK-MEL-28
  GI50: > 100 µM (inactive)
HCT-116
  GI50: > 100 µM (inactive)
Malme-3M
  GI50: > 100 µM (inactive)
SK-MEL-5
  GI50: > 100 µM (inactive)
BT-549
  GI50: > 100 µM (inactive)
SN12C
  GI50: > 100 µM (inactive)
OVCAR-5
  GI50: > 100 µM (inactive)
SF-295
  GI50: > 100 µM (inactive)
CAKI-1
  GI50: > 100 µM (inactive)
UACC-257
  GI50: > 100 µM (inactive)
A498
  GI50: > 100 µM (inactive)
786-0
  GI50: > 100 µM (inactive)
SK-OV-3
  GI50: > 100 µM (inactive)
NCI-H226
  GI50: > 100 µM (inactive)
COLO 205
  GI50: > 100 µM (inactive)
OVCAR-8
  GI50: > 100 µM (inactive)
NCI-H23
  GI50: > 100 µM (inactive)
SF-539
  GI50: > 100 µM (inactive)
IGROV-1
  GI50: > 100 µM (inactive)
CCRF-CEM
  GI50: > 100 µM (inactive)
MOLT-4
  GI50: > 100 µM (inactive)
SW-620
  GI50: > 100 µM (inactive)
SK-MEL-2
  GI50: > 100 µM (inactive)
T47D
  GI50: > 100 µM (inactive)
HT-29
  GI50: > 100 µM (inactive)

Reference: ChEMBL document CHEMBL1201862, “PubChem BioAssay data set” (2004)
